Source: US10913753B2, “Thienopyridine carboxamides as ubiquitin-specific protease inhibitors” (FORMA Therapeutics, Inc., priority 2016, dated 2021)

How the values were obtained:
[1] = target: USP25 (Homo sapiens (Human), UniProt Q9UHP3); test: Ubiquitin-Rhodamine 110 Assay for USP25 Activity; type: biochemical
Summary of the method: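 USP25-His6 (75 pM) preincubated 30 min with compound (25 μM to 1.3 nM, 10-point 3-fold), then Ub-Rh110 added; 45 min at room temperature in pH 8.0 Tris buffer with BME, BGG, Triton X-100, stopped with 10 mM citric acid. Fluorescence 485/535 nm; % inhibition vs no-enzyme and DMSO controls, IC50 by 4-parameter logistic fit.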

[2] = target: USP28 (Homo sapiens (Human), UniProt Q96RU2); test: Ubiquitin-Rhodamine 110 Assay for USP28 Activity; type: biochemical
Summary of the method: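 Single-point screen at 10 μM, 90 min; follow-up dose-response (25 μM top, 3-fold) with 75 pM USP28 (1-1077)-TEV-6*His, 30 min compound preincubation, Ub-Rh110 substrate for 20 min at room temperature, citric acid stop. Buffer pH 8.0 Tris; fluorescence 485/535 nm; IC50 by 4-parameter logistic fit of % inhibition.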

USP25, sequence (Q9UHP3 whole entry): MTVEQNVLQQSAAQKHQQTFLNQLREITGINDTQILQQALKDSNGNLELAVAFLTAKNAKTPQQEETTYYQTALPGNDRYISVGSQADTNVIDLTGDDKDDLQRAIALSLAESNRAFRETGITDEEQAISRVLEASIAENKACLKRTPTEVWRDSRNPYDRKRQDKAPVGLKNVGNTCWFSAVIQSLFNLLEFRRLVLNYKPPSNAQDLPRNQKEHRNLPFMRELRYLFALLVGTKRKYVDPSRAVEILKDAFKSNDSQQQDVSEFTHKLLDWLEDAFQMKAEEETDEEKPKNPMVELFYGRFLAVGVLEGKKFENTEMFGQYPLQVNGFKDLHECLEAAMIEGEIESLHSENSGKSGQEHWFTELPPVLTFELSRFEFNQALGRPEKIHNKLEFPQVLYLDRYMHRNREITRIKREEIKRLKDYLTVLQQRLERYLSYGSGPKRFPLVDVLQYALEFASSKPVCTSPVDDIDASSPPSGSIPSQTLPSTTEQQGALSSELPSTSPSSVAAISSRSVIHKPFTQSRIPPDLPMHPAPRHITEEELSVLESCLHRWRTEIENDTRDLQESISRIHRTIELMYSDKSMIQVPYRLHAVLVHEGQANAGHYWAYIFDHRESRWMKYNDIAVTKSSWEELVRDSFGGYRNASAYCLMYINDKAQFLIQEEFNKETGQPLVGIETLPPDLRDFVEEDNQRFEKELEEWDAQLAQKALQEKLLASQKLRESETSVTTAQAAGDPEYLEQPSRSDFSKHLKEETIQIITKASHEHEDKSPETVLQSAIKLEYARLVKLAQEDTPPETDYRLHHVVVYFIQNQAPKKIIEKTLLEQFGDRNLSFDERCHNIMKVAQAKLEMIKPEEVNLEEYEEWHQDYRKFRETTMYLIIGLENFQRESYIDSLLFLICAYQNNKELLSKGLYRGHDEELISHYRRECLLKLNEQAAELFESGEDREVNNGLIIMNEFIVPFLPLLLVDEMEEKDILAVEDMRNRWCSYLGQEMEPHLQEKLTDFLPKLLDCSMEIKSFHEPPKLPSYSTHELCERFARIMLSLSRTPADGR
USP28, sequence (Q96RU2 whole entry): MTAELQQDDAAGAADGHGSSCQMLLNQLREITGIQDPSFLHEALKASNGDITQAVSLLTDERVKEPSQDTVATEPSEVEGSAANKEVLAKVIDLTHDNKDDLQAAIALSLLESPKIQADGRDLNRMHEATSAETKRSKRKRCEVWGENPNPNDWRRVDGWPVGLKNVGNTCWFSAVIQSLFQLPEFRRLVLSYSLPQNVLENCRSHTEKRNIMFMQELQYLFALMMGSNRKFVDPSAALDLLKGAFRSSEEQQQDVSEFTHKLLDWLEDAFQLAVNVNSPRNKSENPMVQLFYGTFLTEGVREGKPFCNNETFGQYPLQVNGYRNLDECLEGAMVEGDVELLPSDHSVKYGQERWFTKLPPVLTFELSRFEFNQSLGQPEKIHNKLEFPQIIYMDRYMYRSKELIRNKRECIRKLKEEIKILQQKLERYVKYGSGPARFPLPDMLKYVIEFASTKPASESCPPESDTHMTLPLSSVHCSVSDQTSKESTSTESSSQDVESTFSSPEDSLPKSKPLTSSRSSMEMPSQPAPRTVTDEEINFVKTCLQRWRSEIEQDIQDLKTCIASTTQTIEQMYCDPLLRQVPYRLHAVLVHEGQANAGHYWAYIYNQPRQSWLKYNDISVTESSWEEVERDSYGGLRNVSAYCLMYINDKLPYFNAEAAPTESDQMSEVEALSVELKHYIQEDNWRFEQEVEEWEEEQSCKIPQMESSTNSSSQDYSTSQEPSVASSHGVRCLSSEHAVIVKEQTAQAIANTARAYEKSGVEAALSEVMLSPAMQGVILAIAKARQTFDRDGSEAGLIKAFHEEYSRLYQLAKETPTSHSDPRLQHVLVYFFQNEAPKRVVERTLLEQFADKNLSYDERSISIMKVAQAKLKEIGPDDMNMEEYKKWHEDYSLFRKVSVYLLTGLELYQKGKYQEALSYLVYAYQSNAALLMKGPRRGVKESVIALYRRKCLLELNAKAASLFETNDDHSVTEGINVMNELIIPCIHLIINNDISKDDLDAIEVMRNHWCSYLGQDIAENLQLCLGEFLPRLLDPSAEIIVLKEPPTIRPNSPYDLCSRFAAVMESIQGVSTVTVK

Compound	IC50 [1]	IC50 [2]
CCc1cc(CCNC(=O)c2sc3nc(C)ccc3c2N)ccc1N1CCNCC1 [Example I-78]	200 to 2000 nM	< 200 nM
CN[C@H]1CCN(c2ccc(CCNC(=O)c3sc4nc(C)ccc4c3N)cc2Cl)C1 [Example I-79]	200 to 2000 nM	200 to 2000 nM
Cc1ccc2c(N)c(C(=O)NCCc3ccc(N4CCNCC4)cc3C3CC3)sc2n1 [Example I-81]	< 200 nM	< 200 nM
Cc1ccc2c(N)c(C(=O)NCCc3ccc(N4CCNCC4)cc3-c3ccccc3)sc2n1 [Example I-82]	< 200 nM	< 200 nM
CCOc1cc(CCNC(=O)c2sc3nc(C)ccc3c2N)ccc1N1CCNCC1 [Example I-83]	200 to 2000 nM	200 to 2000 nM
Cc1ccc2c(N)c(C(=O)NCCc3ccc(N4CCNCC4)c(F)c3F)sc2n1 [Example I-84]	200 to 2000 nM	200 to 2000 nM
CN[C@@H]1CCN(c2ccc(CCNC(=O)c3sc4nc(C)ccc4c3N)cc2Cl)C1 [Example I-85]	200 to 2000 nM	200 to 2000 nM
Cc1ccc2c(N)c(C(=O)NCCc3ccc(N4CCN[C@H](CO)C4)cc3)sc2n1 [Example I-86]	200 to 2000 nM	200 to 2000 nM
Cc1ccc2c(N)c(C(=O)NCCc3ccc(N4CCN[C@@H](CO)C4)cc3)sc2n1 [Example I-87]	200 to 2000 nM	< 200 nM
Cc1ccc2c(N)c(C(=O)NCCc3ccc(N4CC5CCC(C4)N5)c(F)c3)sc2n1 [Example I-88]	200 to 2000 nM	< 200 nM
Cc1ccc2c(N)c(C(=O)NCCc3ccc(N4CCNCC4)cc3C)sc2n1 [Example I-89]	200 to 2000 nM	< 200 nM
Cc1ccc2c(N)c(C(=O)NCCc3ccc4c(c3)CNCC4)sc2n1 [Example I-90]	200 to 2000 nM	200 to 2000 nM
Cc1ccc2c(N)c(C(=O)N[C@H]3C[C@@H](c4ccc(N5CCNCC5)cc4)C3)sc2n1 [Example I-91, cis-3-Amino-6-methyl-N-(3-(4-(piperazin-1-yl)phenyl)cyclobutyl)thieno [2,3-b]pyridine-2-carboxamide]	200 to 2000 nM	200 to 2000 nM
Cc1ccc2c(N)c(C(=O)N[C@H]3C[C@H](c4ccc(N5CCNCC5)cc4)C3)sc2n1 [Example I-92, trans-3-amino-6-methyl-N-(3-(4-(piperazin-1-yl)phenyl)cyclobutyl)thieno[2,3-b]pyridine-2-carboxamide]	200 to 2000 nM	200 to 2000 nM
Cc1ccc2c(N)c(C(=O)NCCc3cc(F)c(N4C[C@@H]5CCN[C@@H]5C4)cc3F)sc2n1 [Example I-95]	200 to 2000 nM	< 200 nM
Cc1ccc2c(N)c(C(=O)NCCc3cc(F)c(N4C[C@H]5CCN[C@H]5C4)cc3F)sc2n1 [Example I-96]	200 to 2000 nM	< 200 nM
Cc1nc2sc(C(=O)NC[C@@H](C)c3cc(F)c(N4CCNCC4)cc3F)c(N)c2cc1F [Example I-99]	2000 to 10000 nM	2000 to 10000 nM
Cc1nc2sc(C(=O)NC[C@H](C)c3cc(F)c(N4CCNCC4)cc3F)c(N)c2cc1F [Example I-100]	2000 to 10000 nM	200 to 2000 nM

Compound	IC50 [1]	IC50 [2]
Nc1nc2sc(C(=O)NCCc3ccc(N4CCNCC4)cc3)c(N)c2cc1F [Example I-115, 3,6-Diamino-5-fluoro-N-(4-(piperazin-1-yl)phenethyl)thieno[2,3-b]pyridine-2-carboxamide]	200 to 2000 nM	< 200 nM
Cc1ccc2c(N)c(C(=O)NCCc3ccc(N4CCn5ccnc5C4)cc3)sc2n1 [Example I-116, 3-Amino-N-(4-(5,6-dihydroimidazo[1,2-a]pyrazin-7(8H)-yl)phenethyl)-6-methylthieno[2,3-b]pyridine-2-carboxamide]	200 to 2000 nM	200 to 2000 nM
Cc1ccc2c(N)c(C(=O)NCCc3ccc(N4CCN[C@@H](C)C4)cc3)sc2n1 [Example I-121, (S)-3-amino-6-methyl-N-(4-(3-methylpiperazin-1-yl)phenethyl)thieno[2,3-b]pyridine-2-carboxamide]	200 to 2000 nM	200 to 2000 nM
Cc1ccc2c(N)c(C(=O)NCCc3ccc(N4CCNCC4)c(-c4cnn(C(F)F)c4)c3)sc2n1 [Example I-152, 3-Amino-N-(3-(1-(difluoromethyl)-1H-pyrazol-4-yl)-4-(piperazin-1-yl)phenethyl)-6-methylthieno[2,3-b]pyridine-2-carboxamide]	10000 to 25000 nM	2000 to 10000 nM
Cc1ccc2c(N)c(C(=O)NCCc3ccc(N4CCNCC4)c(-c4ccc(C(=O)N5CCCC5)cc4)c3)sc2n1 [Example I-165]	10000 to 25000 nM	200 to 2000 nM
Cc1ccc2c(N)c(C(=O)NCCc3ccc(N4CCNCC4)c(-c4cnn(C5CCOCC5)c4)c3)sc2n1 [Example I-166]	10000 to 25000 nM	2000 to 10000 nM
Cc1ccc2c(N)c(C(=O)NCCc3ccc(N4CCNCC4)c(-c4ccccn4)c3)sc2n1 [Example I-168, 3-Amino-6-methyl-N-(4-(piperazin-1-yl)-3-(pyridin-2-yl)phenethyl)thieno[2,3-b]pyridine-2-carboxamide]	10000 to 25000 nM	2000 to 10000 nM
Cc1ccc2c(N)c(C(=O)NCCc3ccc(C4CCNCC4)c(F)c3)sc2n1 [Example I-169, 3-Amino-N-(3-fluoro-4-(piperidin-4-yl)phenethyl)-6-methylthieno[2,3-b]pyridine-2-carboxamide]	200 to 2000 nM	< 200 nM
Cc1ccc2c(N)c(C(=O)NCCc3ccc(C(=O)O)cc3)sc2n1 [Example I-173, 4-(2-(3-Amino-6-methylthieno[2,3-b]pyridine-2-carboxamido)ethyl)benzoic acid]	200 to 2000 nM	200 to 2000 nM
Cc1ccc2c(N)c(C(=O)NCCc3ccc(CC(=O)O)cc3)sc2n1 [Example I-174]	2000 to 10000 nM	200 to 2000 nM
Cc1ccc2c(N)c(C(=O)NCCc3cccc(C(=O)O)c3)sc2n1 [Example I-175]	2000 to 10000 nM	2000 to 10000 nM
Cc1ccc2c(N)c(C(=O)NCCc3ccc4c(c3)C[C@H](C(=O)O)C4)sc2n1 [Example I-176]	200 to 2000 nM	200 to 2000 nM
Cc1ccc2c(N)c(C(=O)NCCc3ccc4c(c3)C[C@@H](C(=O)O)C4)sc2n1 [Example I-177]	200 to 2000 nM	200 to 2000 nM
Cc1ccc2c(N)c(C(=O)NCCc3cccc(CC(=O)O)c3)sc2n1 [Example I-178]	2000 to 10000 nM	2000 to 10000 nM
Nc1c(C(=O)NCCc2ccc(N3CCNCC3)c(Cl)c2)sc2nc(C(F)F)ccc12 [Example I-179, 3-Amino-N-(3-chloro-4-(piperazin-1-yl)phenethyl)-6-(difluoromethyl)thieno[2,3-b]pyridine-2-carboxamide]	2000 to 10000 nM	2000 to 10000 nM
Cc1ccc2c(N)c(C(=O)NCCc3ccc(N4CCNCC4)c(O)c3)sc2n1 [Example I-182, 3-amino-N-(3-hydroxy-4-(piperazin-1-yl)phenethyl)-6-methylthieno[2,3-b]pyridine-2-carboxamide]	2000 to 10000 nM	200 to 2000 nM
Cc1cc(N)nc2sc(C(=O)NCCc3ccc(N4CCNCC4)cc3)c(N)c12 [Example I-183, 3,6-Diamino-4-methyl-N-(4-(piperazin-1-yl)phenethyl)thieno[2,3-b]pyridine-2-carboxamide]	200 to 2000 nM	200 to 2000 nM
Nc1ccc2c(N)c(C(=O)NCCc3ccc(N4CCNCC4)cc3)sc2n1 [Example I-184]	200 to 2000 nM	200 to 2000 nM
